Source: patent US20230085307A1, “PYRIDAZINONE COMPOUND AND HERBICIDE” (NISSAN CHEMICAL CORPORATION, priority 2019, published 2023)

Tests used:
lambsquarters = test: Test Example 4: herbicidal effect by soil treatment (Table 19, symbol O); type: in vivo, lambsquarters (Chenopodium album); settings: amount of applied herbicide 320 g/ha
In short: (§1)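 Herbicidal effect was rated 3 weeks after treatment, using the scoring criteria of an earlier test. The compound, formulated as an emulsion and diluted in water to a set herbicide amount, had been sprayed uniformly on soil over freshly sown seeds. Growth took place in a greenhouse at 25° C. to 30° C.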

blackgrass [1] = test: Test Example 4: herbicidal effect by soil treatment (Table 19, symbol J); type: in vivo, blackgrass (Alopecurus myosuroides); settings: amount of applied herbicide 320 g/ha
In short: as §1

barnyard grass [2] = test: Test Example 4: herbicidal effect by soil treatment (Table 19, symbol H); type: in vivo, barnyard grass (Echinochloa crus-galli); settings: amount of applied herbicide 320 g/ha
In short: as §1

late watergrass [3] = test: Test Example 2: herbicidal activity, application during weed generation under submerged conditions (Table 17, symbol A); type: in vivo, late watergrass (Echinochloa oryzicola); settings: AAH 320 g/ha; application during weed generation, submerged conditions
In short: (§2)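 Herbicide emulsion, diluted with water to the chosen amount, is applied onto 4 cm floodwater over alluvial soil where the weeds were co-sown and raised at 25–30° C. Application timing: 1–2 leaves. Assessment: three weeks afterwards.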

Italian ryegrass = test: Test Example 5: herbicidal effect by foliage application, plastic box (Table 20, symbol K); type: in vivo, Italian ryegrass (Lolium multiflorum); settings: foliage application, 320 g/ha, three weeks after application
In short: (§3)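 Foliar spray test: emulsion formulation diluted in water to a set application rate, sprayed onto 14-day-old plants raised in diluvial soil at 25° C to 30° C under glass. Both herbicidal effect and crop effect rated visually three weeks later.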

oval-leafed pondweed = test: Test Example 2: herbicidal activity, application during weed generation under submerged conditions (Table 17, symbol C); type: in vivo, oval-leafed pondweed (Monochoria vaginalis); settings: AAH 320 g/ha; application during weed generation, submerged conditions
In short: as §2

green foxtail = test: Test Example 5: herbicidal effect by foliage application, plastic box (Table 20, symbol G); type: in vivo, green foxtail (Setaria viridis); settings: foliage application, 320 g/ha, three weeks after application
In short: as §3

velvetleaf [4] = test: Test Example 5: herbicidal effect by foliage application, plastic box (Table 20, symbol M); type: in vivo, velvetleaf (Abutilon theophrasti); settings: foliage application, 320 g/ha, three weeks after application
In short: as §3

persian speedwell = test: Test Example 4: herbicidal effect by soil treatment (Table 19, symbol R); type: in vivo, Persian speedwell (Veronica persica); settings: amount of applied herbicide 320 g/ha
In short: as §1

barnyard grass [5] = test: Test Example 5: herbicidal effect by foliage application, plastic box (Table 20, symbol H); type: in vivo, barnyard grass (Echinochloa crus-galli); settings: foliage application, 320 g/ha, three weeks after application
In short: as §3

late watergrass [6] = test: Test Example 1: herbicidal activity, application before weed generation under submerged conditions (Table 16, symbol A); type: in vivo, late watergrass (Echinochloa oryzicola); settings: amount of applied herbicide 320 g/ha
In short: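 Alluvial soil was flooded to 4 cm depth, weed seeds were sown mixed and 2.5-leaf rice seedlings were transplanted. On sowing day, the compound's emulsion, diluted in water to a set dose, was applied to the water surface. Plants grew at 25–30 °C and were scored 0–5 after three weeks.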

false cleavers = test: Test Example 4: herbicidal effect by soil treatment (Table 19, symbol Q); type: in vivo, false cleavers (Galium spurium); settings: amount of applied herbicide 320 g/ha
In short: as §1

barnyard grass [7] = test: Test Example 3: herbicidal effect by foliage application, Wagner pot (Table 18, symbol H); type: in vivo, barnyard grass (Echinochloa crus-galli); settings: for herbicidal effect on H: barnyard grass: amount of applied herbicide 320 g/ha
In short: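 Plants were sown in alluvial soil held under 0.1–0.5 cm standing water and grown 14 days in a greenhouse at 25–30 °C. An emulsifiable formulation, water-diluted to the set dose, was then sprayed onto the foliage, and effects were scored three weeks later using previously defined criteria.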

velvetleaf [8] = test: Test Example 4: herbicidal effect by soil treatment (Table 19, symbol M); type: in vivo, velvetleaf (Abutilon theophrasti); settings: amount of applied herbicide 320 g/ha
In short: as §1

southern crabgrass = test: Test Example 4: herbicidal effect by soil treatment (Table 19, symbol F); type: in vivo, southern crabgrass (Digitaria ciliaris); settings: amount of applied herbicide 320 g/ha
In short: as §1

blackgrass [9] = test: Test Example 5: herbicidal effect by foliage application, plastic box (Table 20, symbol J); type: in vivo, blackgrass (Alopecurus myosuroides); settings: foliage application, 320 g/ha, three weeks after application
In short: as §3

chickweed = test: Test Example 5: herbicidal effect by foliage application, plastic box (Table 20, symbol P); type: in vivo, common chickweed (Stellaria media); settings: foliage application, 320 g/ha, three weeks after application
In short: as §3

Row | SMILES | herbicidal effect, O: lambsquarters (lambsquarters) | herbicidal effect, J: blackgrass (blackgrass [1]) | herbicidal effect, H: barnyard grass (barnyard grass [2]) | herbicidal effect rating, A: late watergrass (late watergrass [3]) | K: Italian ryegrass, herbicidal effect grade (Italian ryegrass) | herbicidal effect rating, C: oval-leafed pondweed (oval-leafed pondweed) | G: green foxtail, herbicidal effect grade (green foxtail) | M: velvetleaf, herbicidal effect grade (velvetleaf [4]) | herbicidal effect, R: persian speedwell (persian speedwell) | H: barnyard grass, herbicidal effect grade (barnyard grass [5]) | Herbicidal effect, A: late watergrass (late watergrass [6]) | herbicidal effect, Q: false cleavers (false cleavers) | herbicidal effect on H: barnyard grass (barnyard grass [7]) | herbicidal effect, M: velvetleaf (velvetleaf [8]) | herbicidal effect, F: southern crabgrass (southern crabgrass) | J: blackgrass, herbicidal effect grade (blackgrass [9]) | P: chickweed, herbicidal effect grade (chickweed) | also measured
1 | CCCC(=O)Oc1c(C)nn(C)c(=O)c1-c1c(-c2ccccc2OC)sc2cc(F)ccc12 [3-004] | 5 (Herbicidal rate of 90% or more (almost completely withered)) | 4 (Herbicidal rate of 70% or more and less than 90%) | 4 (Herbicidal rate of 70% or more and less than 90%) | 4 (Herbicidal rate of 70% or more and less than 90%) | 5 (Herbicidal rate of 90% or more (almost completely withered)) | 4 (Herbicidal rate of 70% or more and less than 90%) | 4 (Herbicidal rate of 70% or more and less than 90%) | 5 (Herbicidal rate of 90% or more (almost completely withered)) | 4 (Herbicidal rate of 70% or more and less than 90%) | 5 (Herbicidal rate of 90% or more (almost completely withered)) | 5 (Herbicidal rate of 90% or more (almost completely withered)) | 5 (Herbicidal rate of 90% or more (almost completely withered)) | 5 (Herbicidal rate of 90% or more (almost completely withered)) | 4 (Herbicidal rate of 70% or more and less than 90%) | 4 (Herbicidal rate of 70% or more and less than 90%) | 5 (Herbicidal rate of 90% or more (almost completely withered)) | 5 (Herbicidal rate of 90% or more (almost completely withered)) | 
2 | COc1ccc(-c2sc3cc(F)ccc3c2-c2c(O)c(C)nn(C)c2=O)cc1 [3-005] | 4 (Herbicidal rate of 70% or more and less than 90%) | 0 (Herbicidal rate of 5% or less (almost no effect)) | 3 (Herbicidal rate of 40% or more and less than 70%) | 3 (Herbicidal rate of 40% or more and less than 70%) | 3 (Herbicidal rate of 40% or more and less than 70%) | 4 (Herbicidal rate of 70% or more and less than 90%) | 4 (Herbicidal rate of 70% or more and less than 90%) | 5 (Herbicidal rate of 90% or more (almost completely withered)) | 4 (Herbicidal rate of 70% or more and less than 90%) | 3 (Herbicidal rate of 40% or more and less than 70%) | 4 (Herbicidal rate of 70% or more and less than 90%) | 0 (Herbicidal rate of 5% or less (almost no effect)) | 5 (Herbicidal rate of 90% or more (almost completely withered)) | 3 (Herbicidal rate of 40% or more and less than 70%) | 0 (Herbicidal rate of 5% or less (almost no effect)) | 0 (Herbicidal rate of 5% or less (almost no effect)) | 5 (Herbicidal rate of 90% or more (almost completely withered)) | 
3 | CCCC(=O)Oc1c(C)nn(C)c(=O)c1-c1c(-c2ccccc2OCC)sc2cc(F)ccc12 [3-007] | 0 (Herbicidal rate of 5% or less (almost no effect)) | 3 (Herbicidal rate of 40% or more and less than 70%) | 0 (Herbicidal rate of 5% or less (almost no effect)) | 3 (Herbicidal rate of 40% or more and less than 70%) | 5 (Herbicidal rate of 90% or more (almost completely withered)) | 4 (Herbicidal rate of 70% or more and less than 90%) | 5 (Herbicidal rate of 90% or more (almost completely withered)) | 5 (Herbicidal rate of 90% or more (almost completely withered)) | 4 (Herbicidal rate of 70% or more and less than 90%) | 5 (Herbicidal rate of 90% or more (almost completely withered)) | 5 (Herbicidal rate of 90% or more (almost completely withered)) | 5 (Herbicidal rate of 90% or more (almost completely withered)) | 5 (Herbicidal rate of 90% or more (almost completely withered)) | 4 (Herbicidal rate of 70% or more and less than 90%) | 4 (Herbicidal rate of 70% or more and less than 90%) | 5 (Herbicidal rate of 90% or more (almost completely withered)) | 5 (Herbicidal rate of 90% or more (almost completely withered)) | 
4 | CCOc1cc(F)ccc1-c1sc2cc(Cl)ccc2c1-c1c(O)c(C)nn(C)c1=O [3-045] |  |  |  | 2 (Herbicidal rate of 20% or more and less than 40%) | 0 (Herbicidal rate of 5% or less (almost no effect)) | 0 (Herbicidal rate of 5% or less (almost no effect)) | 5 (Herbicidal rate of 90% or more (almost completely withered)) | 5 (Herbicidal rate of 90% or more (almost completely withered)) |  | 5 (Herbicidal rate of 90% or more (almost completely withered)) | 2 (Herbicidal rate of 20% or more and less than 40%) |  |  |  |  | 4 (Herbicidal rate of 70% or more and less than 90%) | 5 (Herbicidal rate of 90% or more (almost completely withered)) | O: lambsquarters, herbicidal effect grade (lambsquarters): 4 (Herbicidal rate of 70% or more and less than 90%); J: blackgrass, herbicidal effect grade (blackgrass [1]): 3 (Herbicidal rate of 40% or more and less than 70%); H: barnyard grass, herbicidal effect grade (barnyard grass [2]): 5 (Herbicidal rate of 90% or more (almost completely withered)); R: persian speedwell, herbicidal effect grade (persian speedwell): 3 (Herbicidal rate of 40% or more and less than 70%); Q: false cleavers, herbicidal effect grade (false cleavers): 4 (Herbicidal rate of 70% or more and less than 90%); herbicidal effect on barnyard grass (H) (barnyard grass [7]; 320 g/ha): 5 (Herbicidal rate of 90% or more (almost completely withered)); M: velvetleaf, herbicidal effect grade (velvetleaf [8]): 2 (Herbicidal rate of 20% or more and less than 40%); F: southern crabgrass, herbicidal effect grade (southern crabgrass): 5 (Herbicidal rate of 90% or more (almost completely withered))
